Literature values in PMC4139154 (Biochemistry, 2014).

Assays:
nNOS = settings: read-out: Kd of imidazole for nNOS
eNOS = settings: read-out: Kd of imidazole for eNOS
iNOS = settings: read-out: Kd of imidazole for iNOS

- Kd (nNOS): 160 µM
- Kd (eNOS): 150 µM
- Kd (iNOS): 42 µM
SMILES: c1c[nH]cn1 [imidazole]
